Measurements reported in US20080286340A1, “Buffered nicotine containing products” (priority 2007, published 2008).
Read-outs that look alike come from different tables or passages of the source.

What was measured:
[1] = pKa falling in interval 8-9.6; cited from earlier work
[2] = cited from earlier work
[3] = at 37° C.; cited from earlier work
[4] = smoking a cigarette; cited from earlier work

SMILES | pKa value (in interval 8-9.6) [1] | Solubility in water ([2]; water) | further results
NC(=O)C[C@H](N)C(=O)O [Aspargine] | 8.73 |  | 
N[C@@H](CS(=O)(=O)O)C(=O)O [Cysteic acid] |  | Very soluble | 
N[C@@H](CCC(=O)O)C(=O)O [Glutamic acid] | 9.58 |  | 
NC(=O)CC[C@H](N)C(=O)O [Glutamine] |  | 42 g/kg | 
N[C@@H](Cc1c[nH]cn1)C(=O)O [Histidine] |  |  | Solubility in water [2]: 43.5 g/kg
CC[C@H](C)[C@H](N)C(=O)O [Isoleucine] |  | 34.2 g/kg | 
CC(C)C[C@H](N)C(=O)O [Leucine] |  | 22.0 g/kg | 
NCCCC[C@H](N)C(=O)O [Lysine] | 9.16 |  | Solubility in water [2]: Very soluble^a)b)
CSCC[C@H](N)C(=O)O [Methionine] |  |  | Solubility in water [2]: 56 g/kg
N[C@@H](Cc1ccccc1)C(=O)O [Phenylalanine] | 9.09 | 27.9 g/kg | 
CC(C)[C@H](N)C(=O)O [Valine] |  | 88.5 g/kg | 
CN1CCCC1c1cccnc1 (centres unmarked) [nicotine, 3-(1-methyl-2-pyrrolidinyl)pyridine] |  |  | pKa (acid-base equilibrium of nicotine) [3]: ~7.8; nicotine in the non-charged base form (assuming a pH of the saliva of 6.8): about 10%; nicotine in the free readily absorbable base form (at a pH of 9.0): more than 90%; time until nicotine reaches the brain after inhalation [4]: around ten
